Assays:
Format in all cases: in vivo
[1] = system: Chenopodium album (lambsquarters); experiment: greenhouse post-emergence herbicidal test, lambsquarters; conditions: for post-emergence action against lambsquarters: application rate 0.5 kg/ha a.s.; for post-emergence control of lambsquarters: application rate 1.0 kg/ha a.s.
Excerpt: (§1) The culture containers used were plastic flowerpots containing loamy sand with approximately 3.0% of humus as the substrate. The seeds of the test plants were sown separately for each species.
(§2) For the post-emergence treatment, the test plants were first grown to a height of 3 to 15 cm, depending on the plant habit, and only then treated with the active ingredients which had been suspended or emulsified in water. For this purpose, the test plants were either sown directly and grown in the same containers, or they were first grown separately as seedlings and transplanted into the test containers a few days prior to treatment. The rate of application for the post-emergence treatment was 1.0 or 0.5 kg/ha of a.s. (active substance).
(§3) Depending on the species, the plants were kept at 10-25° C. or 20-35° C. The test period extended over 2 to 4 weeks. During this time, the plants were tended, and their response to the individual treatments was evaluated.
(§4) Evaluation was carried out using a scale from 0 to 100. 100 means no emergence of the plants, or complete destruction of at least the aerial parts, and 0 means no damage, or normal course of growth.
(§5) The plants used in the greenhouse experiments belonged to the following species: […]

[2] = system: Setaria viridis (green foxtail); experiment: greenhouse post-emergence herbicidal test, green foxtail; conditions: for post-emergence action against green foxtail: application rate 0.5 kg/ha a.s.; for post-emergence control of green foxtail: application rate 1.0 kg/ha a.s.
Excerpt: as §1, §2, §3, §4, §5

[3] = system: Amaranthus retroflexus (pig weed); experiment: greenhouse post-emergence herbicidal test, pig weed; conditions: for post-emergence action against pig weed: application rate 0.5 kg/ha a.s.; for post-emergence control of pig weed: application rate 1.0 kg/ha a.s.
Excerpt: as §1, §2, §3, §4, §5

CNC(=O)C(NC(=O)c1ccc(F)cc1C(F)(F)F)C(OC(=O)N(C)C)c1cccs1 (mixture of isomers) [Compound 3.10]
very good: post-emergence action against lambsquarters [1] | post-emergence action against green foxtail [2] | post-emergence action against pig weed [3]

CNC(=O)C(NC(=O)c1ccc(F)cc1C(F)(F)F)C(OC(=O)N(C)C)c1ccsc1 (mixture of isomers) [Compound 3.11]
very good: post-emergence control of lambsquarters [1] | post-emergence control of green foxtail [2] | post-emergence control of pig weed [3]

CNC(=O)C(NC(=O)c1ccccc1C(F)(F)F)C(O)c1ccn(C)n1 (mixture of isomers) [Compound 3.14]
very good: post-emergence control of lambsquarters [1] | post-emergence control of green foxtail [2] | post-emergence control of pig weed [3]

CNC(=O)C(NC(=O)c1ccccc1C(F)(F)F)C(OC(=O)N(C)C)c1ccn(C)n1 (mixture of isomers) [Compound 3.20]
very good: post-emergence control of lambsquarters [1] | post-emergence control of green foxtail [2] | post-emergence control of pig weed [3]

CNC(=O)C(NC(=O)c1ccccc1C(F)(F)F)C(OC(=O)N(C)C)c1ccn(C)n1 (mixture of isomers) [Compound 3.21]
very good: post-emergence action against lambsquarters [1] | post-emergence action against green foxtail [2] | post-emergence action against pig weed [3]

CNC(=O)C(NC(=O)c1ccc(F)cc1C(F)(F)F)C(O)c1ccc(Cl)s1 (mixture of isomers) [Compound 3.28]
very good: post-emergence action against lambsquarters [1] | post-emergence action against green foxtail [2] | post-emergence action against pig weed [3]

CNC(=O)C(NC(=O)c1ccc(F)cc1C(F)(F)F)C(O)c1ccccn1 (mixture of isomers) [Compound 3.36]
very good: post-emergence action against lambsquarters [1] | post-emergence action against green foxtail [2] | post-emergence action against pig weed [3]

CNC(=O)C(NC(=O)c1ccc(F)cc1C(F)(F)F)C(O)c1cccnc1Cl (mixture of isomers) [Compound 3.39]
very good: post-emergence control of lambsquarters [1] | post-emergence control of green foxtail [2] | post-emergence control of pig weed [3]

CNC(=O)C(NC(=O)c1ccc(F)cc1C(F)(F)F)C(O)c1cccnc1Cl (mixture of isomers) [Compound 3.40]
very good: post-emergence control of lambsquarters [1] | post-emergence control of green foxtail [2] | post-emergence control of pig weed [3]

CNC(=O)C(NC(=O)c1ccc(F)cc1C(F)(F)F)C(O)c1ccc[n+]([O-])c1Cl (mixture of isomers) [Compound 3.41]
very good: post-emergence action against lambsquarters [1] | post-emergence action against green foxtail [2] | post-emergence action against pig weed [3]

CNC(=O)C(NC(=O)c1ccc(F)cc1C(F)(F)F)C(OC(C)=O)c1ccccn1 (mixture of isomers) [Compound 3.53]
very good: post-emergence action against lambsquarters [1] | post-emergence action against green foxtail [2] | post-emergence action against pig weed [3]

CNC(=O)C(NC(=O)c1ccc(F)cc1C(F)(F)F)C(OC(=O)N(C)C)c1ccc(Cl)s1 (mixture of isomers) [Compound 3.66]
very good: post-emergence action against lambsquarters [1] | post-emergence action against green foxtail [2] | post-emergence action against pig weed [3]

CNC(=O)C(NC(=O)c1ccc(F)cc1C(F)(F)F)C(OC(=O)N(C)C)c1ccccn1 (mixture of isomers) [Compound 3.69]
very good: post-emergence action against lambsquarters [1] | post-emergence action against green foxtail [2] | post-emergence action against pig weed [3]

CNC(=O)C(NC(=O)c1ccc(F)cc1C(F)(F)F)C(OC(C)=O)c1cccnc1Cl (racemic) [Compound 3.56]
very good: post-emergence action against lambsquarters [1] | post-emergence action against green foxtail [2] | post-emergence action against pig weed [3]

CNC(=O)C(NC(=O)c1ccc(F)cc1C(F)(F)F)C(OC(C)=O)c1cnccc1Cl (racemic) [Compound 3.57]
very good: post-emergence action against lambsquarters [1] | post-emergence action against green foxtail [2] | post-emergence action against pig weed [3]

CNC(=O)C(NC(=O)c1ccc(F)cc1C(F)(F)F)C(OC(C)=O)c1ccncc1Cl (racemic) [Compound 3.59]
very good: post-emergence action against lambsquarters [1] | post-emergence action against green foxtail [2] | post-emergence action against pig weed [3]

CNC(=O)C(NC(=O)c1ccc(F)cc1C(F)(F)F)C(OC(=O)N(C)C)c1cccnc1F (racemic) [Compound 3.71]
very good: post-emergence action against lambsquarters [1] | post-emergence action against green foxtail [2] | post-emergence action against pig weed [3]

CNC(=O)C(NC(=O)c1ccc(F)cc1C(F)(F)F)C(OC(=O)N(C)C)c1cnccc1Cl (racemic) [Compound 3.74]
very good: post-emergence action against lambsquarters [1] | post-emergence action against green foxtail [2] | post-emergence action against pig weed [3]

CNC(=O)C(NC(=O)c1ccc(F)cc1C(F)(F)F)C(OC(=O)N(C)C)c1ccc[n+]([O-])c1Cl (racemic) [Compound 3.75]
very good: post-emergence action against lambsquarters [1] | post-emergence action against green foxtail [2] | post-emergence action against pig weed [3]

CC[Si](CC)(CC)OC(c1ccsc1)C(NC(=O)c1ccc(F)cc1C(F)(F)F)C(=O)NC [Compound 3.13, (2S,3R)-threo-4-Fluoro-N-(1-methylcarbamoyl-2-thiophen-3-yl-2-triethylsilanyloxyethyl)-2-trifluoromethylbenzamide]
very good: post-emergence control of lambsquarters [1] | post-emergence control of green foxtail [2] | post-emergence control of pig weed [3]

CNC(=O)[C@@H](NC(=O)c1ccc(F)cc1C(F)(F)F)C(OC(=O)CSC)c1cccs1 (stereo partly drawn) [Compound 3.63]
very good: post-emergence action against lambsquarters [1] | post-emergence action against green foxtail [2] | post-emergence action against pig weed [3]

CNC(=O)[C@@H](NC(=O)c1ccc(F)cc1C(F)(F)F)C(OC(=O)N(C)C)c1cccs1 (stereo partly drawn) [Compound 3.65]
very good: post-emergence action against lambsquarters [1] | post-emergence action against green foxtail [2] | post-emergence action against pig weed [3]

CC[Si](CC)(CC)OC(c1ccc(Cl)s1)[C@H](NC(=O)c1ccc(F)cc1C(F)(F)F)C(=O)NC (stereo partly drawn) [Compound 3.79]
very good: post-emergence control of lambsquarters [1] | post-emergence control of green foxtail [2] | post-emergence control of pig weed [3]
